{
  "source": "patent US20170252278A1",
  "about": "“INHIBITION OF MATURATION OF DENTAL BIOFILM AND CARIOGENIC PROPERTIES” (KONINKLIJKE PHILIPS N.V., priority 2014, published 2017)",
  "assay_type_in_all_cases": "cell-based",
  "key": {"[1]": {"test_system": "in vitro oral plaque biofilms", "experiment": "Lactic acid production of biofilms grown with 3-oxo-N(2-oxocyclohexyl)dodecanamide and C12-HSL (interference test)", "details": "all concentrations (25 or 100 μM), with 0, 25 or 100 μM C12-HSL; 48 h growth", "method": "(§1) To estimate the cariogenic phenotype, lactic acid production of the in vitro oral plaque biofilms was determined prior to harvesting (Exerkate et al 2010). In short, the biofilms on coverslips were placed in a 24-well plate containing 1.5 ml of BPW with 0.2% sucrose. Lactic acid formation was allowed for 3 hr at 37° C. under anaerobic conditions. The total amount of lactic acid produced in this period was analyzed using a colorimetric assay described previously (van Loveren et al. (2000)) and expressed as mM lactic acid, and as μM lactic acid per 1×10^6 CFU.\nIn this experiment the effect of the quorum sensing molecule C12-HSL on the lactate reducing activity of 3-Oxo-N-(2-oxocyclohexyl)dodecanamide was tested. Biofilms were grown for 48 h in buffered McBain medium supplemented with 0.2% sucrose, in the presence of 0, or 25 or 100 μM 3-oxo-N(2-oxocyclohexyl)dodecanamide and 0, or 25 or 100 μM of C12-HSL. Medium was refreshed twice every day. After 48 h of growth, biofilms were transferred to BPW with 0.2% sucrose, and biofilms were allowed to produce lactate for 3 h."}, "[2]": {"test_system": "in vitro oral plaque biofilms", "experiment": "Lactic acid production assay of in vitro oral plaque biofilms", "method": "All compounds tested of Table 1 were obtained from Sigma Aldrich. All compounds of Table 2, except 3-oxo-N(2oxocyclohexyl)dodecanamide, were kindly provided by M. Meijler, University of the Negev, Israel. The compounds were dissolved in DMSO and stored at −20 C. The compounds were continuously present at the indicated concentrations during biofilm growth, but not during further phenotypic analysis, i.e. lactate production.\nas §1\nBiofilms were grown for 48 h in buffered McBain medium supplemented with 0.2% sucrose in the presence of 100 μM of one of the compounds. Medium was refreshed twice every day. […]"}, "[3]": {"test_system": "in vitro oral plaque biofilms", "experiment": "In vitro oral plaque biofilm formation in the Amsterdam Active Attachment Model, CFU determination", "details": "for in vitro oral plaque biofilm formation, Colony Forming Units: FIG. 1", "method": "Stimulated saliva, used as inoculum, was collected on ice from ten donors. Saliva was donated 24 h after last brushing. The saliva was diluted 2-fold with 60% sterile glycerol, aliquoted and stored at −80° C. Before use, a pooled sample was prepared by mixing 200 μl of thawed saliva of each donor and vortexing for 30 seconds. In vitro oral plaque biofilms were inoculated 1:50 with pooled saliva.\nIn vitro oral plaque biofilms were grown in the Amsterdam Active Attachment Model (AAA-model, Exterkate et al. (2010)), assembled with glass coverslips (diameter 12 mm; Menzel, Braunschweig, Germany). The model was inoculated for 8 h with pooled saliva in buffered semi-defined McBain medium (2.5 g/l mucin (Sigma, St Louis, Mo.), 2.0 g/l Bacto peptone (Difco, Detroit, Mich.), 2.0 g/l Trypticase peptone (BBL, Cockeysville, Md.), 1.0 g/l yeast extract (BD Diagnostic Systems, Sparks, Md.), 0.35 g/l NaCl, 0.2 g/l KCl, 0.2 g/l CaCl2, 1 mg/l hemin (Sigma, St. Louis, Mo., USA), and 2 mg/l vitamin K1 (McBain et al. (2005)), with 50 mmol/1 PIPES at pH 7.0), with 0.2% sucrose.\nIn vitro oral plaque biofilms were grown in the AAA-model for 48-96 h in the presence of the compounds tested. The model was inoculated with saliva and incubated anaerobically at 37° C. for 8 hours to allow microbes to attach to the glass coverslips. After 8 hours of attachment, the inoculation medium was refreshed and in vitro oral plaque biofilms were grown for 16 hours. This refreshment routine was repeated daily until the day of harvesting.\nIn vitro oral plaque biofilms were harvested by transferring the glass coverslips into 2 ml phosphate buffered saline (PBS). The biofilms were dispersed using a Vibracell VCX130 sonicator with a maximum of 130 Watts and 20 kHz (Sonics & Materials, Newtown, USA). Bio films were sonicated on ice for 1 minute with a pulse rate of 50% and pulses of 1 second. Vibration amplitude was set to 40%.\nTo estimate the amount of in vitro oral plaque biofilm formation, total anaerobic colony forming units were determined. Briefly, serial dilutions of the dispersed bio films were made and plated on tryptic soy agar blood plates. Plates were subsequently incubated anaerobically for 96 h at 37° C. and colony forming units were determined by counting the number of colonies for each dilution."}, "[4]": {"test_system": "in vitro oral plaque biofilms", "experiment": "Microbial composition of biofilms by 16S rDNA sequencing", "details": "for Actinobacillus, share of biofilm composition / Actinomyces, share of biofilm composition / Campylobacter, share of biofilm composition / Fusobacterium, share of biofilm composition / Granulicatella, share of biofilm composition / Haemophilus, share of biofilm composition / Megasphaera, share of biofilm composition / Neisseria, share of biofilm composition / Other taxa, share of biofilm composition / Porphyromonas, share of biofilm composition / Prevotella, share of biofilm composition / Rothia, share of biofilm composition / Solobacterium, share of biofilm composition / Streptococcus, share of biofilm composition / Unclass. Pasteurellaceae, share of biofilm composition / Veillonella, share of biofilm composition: 3-Oxo-N 100 μM, furanones 10 μM", "method": "DNA was isolated using phenol bead-beating followed by Agowa isolation, following the manufacturers instructions (LGC Genomics, Mag mini kit). Briefly, cells were mechanically disrupted four times at 1200 rpm for two minutes in addition of Tris-saturated Phenol, pH8, 0.1 mm zirconium beads and Mag lysis buffer. The DNA-containing phase was mixed with binding buffer and magnetic beads. DNA concentration was estimated by determining the absorbance at 260 nm using the nanodrop (Isogen, ND-1000).\nPCR was performed in a final volume of 25 μl containing 1 μl of each primer ([…]), 1 μl dNTP (10 mM), 2.5 μl 10× DreamTaq Buffer including MgCl2 (Thermo Scientific), 0.2 μl DreamTaq DNA Polymerase (5 u/μ1, Thermo Scientific) and 50 ng of DNA. Initial denaturation was performed at 94° C. for 4 min, followed by 35 cycles of denaturation at 94° C. for 30 s, 54° C. annealing for 1 min, 72° C. for 1 min primer extension and a final extension at 72° C. for 5 min. Product formation was confirmed by electrophoresis of 5 μl on a 1% (w/v) agarose gel (Sphearo Q, Leiden, The Netherlands) stained with ethidium bromide.\nThese samples were analyzed by 16S rDNA Illumina sequencing at TNO Zeist (Netherlands).\nTable 3. Microbial composition of biofilms grown for 48 (Table 3A) or 96 h (Table 3B) in the presence of different QS inhibitors. Composition was determined by 16S rDNA sequencing. The composition of the original inoculum used for all biofilms was also determined. “Unclass.” means: unclassified."}},
  "data": [
    {"compound": "CCCCCCCCCC(=O)CC(=O)NC1CCCCC1=O", "note": "(stereo not shown) [3-Oxo-N, 3-oxo-N-(2-oxocyclohexyl)dodecanamide]", "values": [
      {"measurement": "total lactic acid production per biofilm vs control (FIG. 3)", "setting": "[1]", "value": "statistical significant difference"},
      {"measurement": "lactate production (FIG. 4A)", "setting": "[2]; 10 μM", "value": "significantly reduces"},
      {"measurement": "lactate production (FIG. 4A)", "setting": "[2]; 100 μM", "value": "almost completely blocked"},
      {"measurement": "lactate production corrected for CFU (FIG. 4B)", "setting": "[2]; 100 μM or 10 μM", "value": "still lower"},
      {"measurement": "total lactic acid production per biofilm (FIG. 2)", "setting": "[2]; 100 μM, biofilms grown 48 h, 3 h in BPW with 0.2% sucrose", "value": "reduced lactic acid production"},
      {"measurement": "lactate production after 96 hours of growth", "setting": "[2]; 96 hours of growth", "value": "the reducing effect was still present"},
      {"measurement": "inhibitory concentration (concentration that completely inhibits oral plaque biofilm growth)", "setting": "[3]", "value": "above 800 μM"},
      {"measurement": "in vitro oral plaque biofilm formation, Colony Forming Units", "setting": "[3]; 100 μM, control 1.5×10^9 CFU", "value": "up to 6.6×10^8 CFU"},
      {"measurement": "biofilm production (visible amount of biofilm)", "setting": "[3]; Example 2, 100 μM, 48 h", "value": "normal amounts of biofilm"},
      {"measurement": "in vitro oral plaque biofilm formation, Colony Forming Units", "setting": "[3]; all the other concentrations (below 100 μM), same as control", "value": "1.5×10^9 CFU"},
      {"measurement": "effect on in vitro oral plaque biofilm formation", "setting": "[3]; highest concentration tested (100 μM)", "value": "slightly affected"},
      {"measurement": "Streptococcus reduced versus control", "setting": "[4]; 100 μM, 48 h", "value": "more than 30%"},
      {"measurement": "Veillonella more abundant than in control", "setting": "[4]; 100 μM, 48 h", "value": 10, "unit": "%"},
      {"measurement": "change in Actinobacillus species versus control", "setting": "[4]; 100 μM, 48 h", "value": "increase"},
      {"measurement": "Actinobacillus, share of biofilm composition", "setting": "[4]; 48 h", "value": 27.6, "unit": "%"},
      {"measurement": "Actinomyces, share of biofilm composition", "setting": "[4]; 48 h", "value": 0.0, "unit": "%"},
      {"measurement": "Campylobacter, share of biofilm composition", "setting": "[4]; 48 h", "value": 1.1, "unit": "%"},
      {"measurement": "Fusobacterium, share of biofilm composition", "setting": "[4]; 48 h", "value": 0.0, "unit": "%"},
      {"measurement": "Granulicatella, share of biofilm composition", "setting": "[4]; 48 h", "value": 0.0, "unit": "%"},
      {"measurement": "Haemophilus, share of biofilm composition", "setting": "[4]; 48 h", "value": 0.2, "unit": "%"},
      {"measurement": "Megasphaera, share of biofilm composition", "setting": "[4]; 48 h", "value": 0.0, "unit": "%"},
      {"measurement": "Neisseria, share of biofilm composition", "setting": "[4]; 48 h", "value": 0.0, "unit": "%"},
      {"measurement": "Other taxa, share of biofilm composition", "setting": "[4]; 48 h", "value": 0.1, "unit": "%"},
      {"measurement": "Porphyromonas, share of biofilm composition", "setting": "[4]; 48 h", "value": 0.0, "unit": "%"},
      {"measurement": "Prevotella, share of biofilm composition", "setting": "[4]; 48 h", "value": 0.0, "unit": "%"},
      {"measurement": "Rothia, share of biofilm composition", "setting": "[4]; 48 h", "value": 0.0, "unit": "%"},
      {"measurement": "Solobacterium, share of biofilm composition", "setting": "[4]; 48 h", "value": 0.0, "unit": "%"},
      {"measurement": "Streptococcus, share of biofilm composition", "setting": "[4]; 48 h", "value": 34.3, "unit": "%"},
      {"measurement": "Unclass. Pasteurellaceae, share of biofilm composition", "setting": "[4]; 48 h", "value": 0.6, "unit": "%"},
      {"measurement": "Veillonella, share of biofilm composition", "setting": "[4]; 48 h", "value": 36.0, "unit": "%"},
      {"measurement": "Actinobacillus, share of biofilm composition", "setting": "[4]; 96 h", "value": 12.0, "unit": "%"},
      {"measurement": "Actinomyces, share of biofilm composition", "setting": "[4]; 96 h", "value": 0.0, "unit": "%"},
      {"measurement": "Campylobacter, share of biofilm composition", "setting": "[4]; 96 h", "value": 7.2, "unit": "%"},
      {"measurement": "Fusobacterium, share of biofilm composition", "setting": "[4]; 96 h", "value": 0.0, "unit": "%"},
      {"measurement": "Granulicatella, share of biofilm composition", "setting": "[4]; 96 h", "value": 0.0, "unit": "%"},
      {"measurement": "Haemophilus, share of biofilm composition", "setting": "[4]; 96 h", "value": 0.1, "unit": "%"},
      {"measurement": "Megasphaera, share of biofilm composition", "setting": "[4]; 96 h", "value": 0.0, "unit": "%"},
      {"measurement": "Neisseria, share of biofilm composition", "setting": "[4]; 96 h", "value": 0.0, "unit": "%"},
      {"measurement": "Other taxa, share of biofilm composition", "setting": "[4]; 96 h", "value": 0.3, "unit": "%"},
      {"measurement": "Porphyromonas, share of biofilm composition", "setting": "[4]; 96 h", "value": 0.0, "unit": "%"},
      {"measurement": "Prevotella, share of biofilm composition", "setting": "[4]; 96 h", "value": 0.0, "unit": "%"},
      {"measurement": "Rothia, share of biofilm composition", "setting": "[4]; 96 h", "value": 0.0, "unit": "%"},
      {"measurement": "Solobacterium, share of biofilm composition", "setting": "[4]; 96 h", "value": 0.0, "unit": "%"},
      {"measurement": "Streptococcus, share of biofilm composition", "setting": "[4]; 96 h", "value": 28.7, "unit": "%"},
      {"measurement": "Unclass. Pasteurellaceae, share of biofilm composition", "setting": "[4]; 96 h", "value": 0.0, "unit": "%"},
      {"measurement": "Veillonella, share of biofilm composition", "setting": "[4]; 96 h", "value": 51.7, "unit": "%"}
    ]}
  ]
}
